# Reference: publication PMC6875038, “Comparative Pharmacokinetic Studies of Four Ginsenosides in Rat Plasma by UPLC-MS/MS after Oral Administration of Panax quinquefolius-Acorus gramineus and Panax quinquefolius Extracts” (Journal of Analytical Methods in Chemistry, 2019)
# Like-named read-outs stand apart in the source and are kept apart here.
# How the values were obtained:
# [1] = Stability of the ginsenosides in rat plasma (QC samples); format: in vitro ADME; conditions: for Re (%) Postpreparation / Recovery (%) Postpreparation: autosampler 4°C for 12 h; for Re (%) Short term / Recovery (%) Short term / Re (%) Freeze-thaw cycles / Recovery (%) Freeze-thaw cycles: rat plasma; for Re (%) Short term / Recovery (%) Short term: 1 month at −80°C; for Re (%) Freeze-thaw cycles / Recovery (%) Freeze-thaw cycles: three freeze-thaw cycles at −80°C
# Protocol: The standard stock solution was prepared in methanol with four ginsenosides at the final concentration of 1.14 mg/mL for Rb1, 0.10 mg/mL for Rb2, 0.78 mg/mL for Rd, and 1.58 mg/mL for Re. The working standard solution at required concentration was obtained by continuously diluting the stock solution. The IS stock solution was also prepared with methanol at a final concentration of 720 ng/mL. Calibration samples were prepared by mixing solutions of standard mixture, internal standard, and methanol with rat blank plasma at the final concentrations of 3.6, 7.2, 35.6, 71.2, 142.4, 284.8, 569.5, and 1, 139.0 ng/mL for Rb1, 1.6, 3.2, 6.3, 31.3, 62.5, 125.0, 250.0, and 500.0 ng/mL for Rb2, 1.2, 2.4, 4.9, 24.4, 48.8, 97.6, 195.1, and 390.2 ng/mL for Rd, and 2.5, 4.9, 9.9, 49.3, 98.6, 197.1, 394.3, and 788.5 ng/mL for Re. QC samples were also prepared with the same method at low, middle, and high concentrations (7.2, 142.4, and 911.4 ng/mL for Rb1, 3.2, 62.5, and 400.0 ng/mL for Rb2, 2.4, 48.8, and 312.2 ng/mL for Rd, 5.0, 98.6, and 630.8 ng/mL for Re). All solutions were stored at 4°C. The stability of the four analytes was determined by exposing plasma samples to QC at three concentration levels in six replicates. Samples were stored at −80°C for 1 month to assess the short-term storage stability. Freeze-thaw stability was performed after three freeze-thaw cycles at −80°C during three consecutive days. To evaluate the postpreparative stability, extracted QC samples were kept in the autosampler (4°C) for 12 h before analysis. The stability assessment of these samples was calibrated with freshly prepared standard as previously described.
# [2] = Pharmacokinetics of four ginsenosides in rat plasma after oral administration of PQ-AG and PQ extracts (UPLC-MS/MS); format: in vivo; conditions: male SD rats, n = 6, mean ± SD; for AUC: male, SD, po
# Protocol: Chromatographic analysis was performed on a Waters Acquity UPLC system (Waters Corp., Milford, MA, USA). An ACQUITY UPLC BEH C18 (100 × 2.1 mm, 1.7 μm) column was used for all analytes. The column temperature was at 35°C. The mobile phase was composed of formic acid aqueous solution (A, 0.1%) and acetonitrile (B) at a gradient elution of 25% B at 0–0.5 min, 25%–50% B at 0.5–2.0 min, 50–60% B at 2.0–5.0 min, 60–25% B at 5.0–5.5 min, and 25% B at 5.5–7.0 min, with a flow rate of 0.2 mL/min.
# MS detection was performed using the Xevo Triple Quadruple MS (Waters Corp.) equipped with an ESI source in both positive and negative ionization modes. The experimental parameters were set as follows: CV 2.80 kV; desolvation temperature 350°C; source temperature […]; cone gas flow 50 L/h; and desolvation gas flow 650 L/h. The detection was carried out using the MRM scan mode. All experimental data were collected in centroid mode using Masslynx 4.1 software (Waters Corp., Milford, USA), and postacquisition quantitative analysis was conducted using Target Lynx program (Waters Corp., Milford, USA).
# Plasma specimens (200 μL) were mixed with IS solution (20 μL, 720 ng/mL) in an Eppendorf tube and centrifuged at 4, 000 rpm for 15 min at 4°C. Then, the supernatant was removed from plasma sample. Hydrochloric acid (4 μL) was added into 200 μL plasma sample, and then, the mixture was vortexed for 1 min. Waters OASIS HLB SPE C18 columns (Waters, USA) were used to remove the proteins in plasma samples, and it was preactivated by 3 mL methanol and 3 mL water. Then, 2 mL of 100% methanol was used to wash the column, and the eluate was collected and dried under nitrogen gas (45°C). Subsequently, 100 μL of 100% methanol was used to redissolve the residues, followed by centrifugation at 13, 000 rpm for 15 min at 4°C. Before UPLC-MS/MS analysis, the sample was finally filtered through a 0.22 μm membrane filter.
# DAS 3.2 software (Mathematical Pharmacology Professional Committee of China, Shanghai, China, 2011) was applied for the analysis of concentration-time data to investigate the pharmacokinetic parameters of four ginsenosides in various groups. Data were presented as the mean ± SD (standard deviation) with triplicate measurements. A significance level was set at P < 0.05.
# Male SD rats were randomly and evenly divided into two groups (n = 6 per group) in pharmacokinetic studies. To evaluate the compatible effect of AG upon PQ treatment, rats were given PQ at a dosage of 0.54 g/kg (equivalent to the amount of raw drug 0.54 g) in the PQ group. PQ-AG was combined with an equal proportion to prepare the mixed extract. The oral dosage in rats was 1.08 g/kg (equivalent to the amount of the raw drug including 0.54 g AG and 0.54 g PQ) in the PQ-AG group. Blood samples were collected at specific time points of 0, 0.25, 0.5, 1.0, 1.5, 2.0, 4.0, 6.0, 8.0, 12.0, 16.0, 24.0, and 48.0 h. All the plasma samples were obtained by centrifuging the blood samples at 3, 500 rpm for 10 min, then labeled and frozen at −80°C prior to analysis.
# [3] = extracted high QC (911.4 Rb1, 400.0 Rb2, 312.2 Rd, 630.8 Re ng/mL)
# [4] = extracted low QC (7.2 Rb1, 3.2 Rb2, 2.4 Rd, 5.0 Re ng/mL)
# [5] = extracted middle QC (142.4 Rb1, 62.5 Rb2, 48.8 Rd, 98.6 Re ng/mL)
# [6] = high QC (911.4 Rb1, 400.0 Rb2, 312.2 Rd, 630.8 Re ng/mL)
# [7] = low QC (7.2 Rb1, 3.2 Rb2, 2.4 Rd, 5.0 Re ng/mL)
# [8] = middle QC (142.4 Rb1, 62.5 Rb2, 48.8 Rd, 98.6 Re ng/mL)
# [9] = PQ group: oral PQ extract 0.54 g/kg
# [10] = PQ-AG group: oral PQ-AG extract 1.08 g/kg
structure (smiles),measurement,setting,value
CC(C)=CCC[C@](C)(O[C@@H]1O[C@H](CO[C@@H]2O[C@H](CO)[C@@H](O)[C@H](O)[C@H]2O)[C@@H](O)[C@H](O)[C@H]1O)[C@H]1CC[C@]2(C)[C@@H]1[C@H](O)C[C@@H]1[C@@]3(C)CC[C@H](O[C@@H]4O[C@H](CO)[C@@H](O)[C@H](O)[C@H]4O[C@@H]4O[C@H](CO)[C@@H](O)[C@H](O)[C@H]4O)C(C)(C)[C@@H]3CC[C@]12C [Rb1],Re (%) Postpreparation,[1]; [3],−6.47%
same,Recovery (%) Postpreparation,[1]; [3],96.10%
same,Re (%) Postpreparation,[1]; [4],6.86%
same,Recovery (%) Postpreparation,[1]; [4],101.85%
same,Re (%) Postpreparation,[1]; [5],9.35%
same,Recovery (%) Postpreparation,[1]; [5],101.65%
same,Re (%) Short term,[1]; [6],7.53%
same,Recovery (%) Short term,[1]; [6],101.65%
same,Re (%) Freeze-thaw cycles,[1]; [6],7.75%
same,Recovery (%) Freeze-thaw cycles,[1]; [6],101.95%
same,Re (%) Short term,[1]; [7],−7.55%
same,Recovery (%) Short term,[1]; [7],96.32%
same,Re (%) Freeze-thaw cycles,[1]; [7],−6.90%
same,Recovery (%) Freeze-thaw cycles,[1]; [7],97.66%
same,Re (%) Short term,[1]; [8],7.95%
same,Recovery (%) Short term,[1]; [8],100.48%
same,Re (%) Freeze-thaw cycles,[1]; [8],−4.48%
same,Recovery (%) Freeze-thaw cycles,[1]; [8],95.35%
same,Cmax,[2]; [9],461 ± 15.9 ng/mL
same,Tmax,[2]; [9],7 ± 1.1 h
same,half-life,[2]; [9],15.6 ± 1.52 h
same,Cmax,[2]; [10],600 ± 53.6 ng/mL
same,Tmax,[2]; [10],6.67 ± 1.03 h
same,half-life,[2]; [10],18.5 ± 2.61 h
same,AUC,"[2]; 0.54 g/kg, PQ group: oral PQ extract 0.54 g/kg, read-out: AUC0⟶t",5980 ± 313 ng·h/mL
same,AUC,"[2]; 0.54 g/kg, PQ group: oral PQ extract 0.54 g/kg, read-out: AUC0⟶∞",6150 ± 328 ng·h/mL
same,AUC,"[2]; 1.08 g/kg, PQ-AG group: oral PQ-AG extract 1.08 g/kg, read-out: AUC0⟶t",8130 ± 454 ng·h/mL
same,AUC,"[2]; 1.08 g/kg, PQ-AG group: oral PQ-AG extract 1.08 g/kg, read-out: AUC0⟶∞",8410 ± 488 ng·h/mL
